One assay deals with CB2 receptor (UniProt P47936). Put plainly: CB2 receptor binding affinity (Ki). Particulars: read-out: CB2 receptor Ki. The protocol: Some disclosed compounds were tested for CB1 and CB2 receptor binding affinity (Tables 1, 2, 3, 4, 5, 6). As used herein “binding affinity” is represented by the Ki value. The Ki value is the affinity constant and describes the affinity of the compound for the receptor. The lower the Ki value, the higher the affinity of the compound for the receptor. A detailed description of the methods used to test “binding affinity” of compounds is given in Makriyannis, et al., US 2007, 0135388 and in Papahatjis, et al. J. Med. Chem. (2007) 4048, the content of each of which is hereby incorporated by reference.

The next assay has as its target CB1 (Rattus norvegicus, UniProt P20272). Briefly: CB1 receptor binding affinity (Ki). The protocol: Some disclosed compounds were tested for CB1 and CB2 receptor binding affinity (Tables 1, 2, 3, 4, 5, 6). As used herein “binding affinity” is represented by the Ki value. The Ki value is the affinity constant and describes the affinity of the compound for the receptor. […] A detailed description of the methods used to test “binding affinity” of compounds is given in Makriyannis, et al., US 2007, 0135388 and in Papahatjis, et al. J. Med. Chem. (2007) 4048, the content of each of which is hereby incorporated by reference.

Chain of CB1 (P20272 whole entry): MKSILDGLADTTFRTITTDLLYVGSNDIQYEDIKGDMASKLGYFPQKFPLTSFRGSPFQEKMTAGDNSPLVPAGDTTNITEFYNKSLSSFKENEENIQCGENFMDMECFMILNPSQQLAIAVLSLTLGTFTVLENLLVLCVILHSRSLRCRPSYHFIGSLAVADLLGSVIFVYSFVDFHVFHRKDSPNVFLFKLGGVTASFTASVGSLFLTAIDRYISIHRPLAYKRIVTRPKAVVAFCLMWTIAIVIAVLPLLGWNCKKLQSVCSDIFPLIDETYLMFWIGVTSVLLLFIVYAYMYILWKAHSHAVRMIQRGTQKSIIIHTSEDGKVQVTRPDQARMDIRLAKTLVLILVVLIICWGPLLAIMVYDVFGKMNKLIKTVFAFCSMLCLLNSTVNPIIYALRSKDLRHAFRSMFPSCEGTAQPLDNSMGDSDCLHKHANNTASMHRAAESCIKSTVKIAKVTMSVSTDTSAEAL

`C=C(C)[C@H]1CCC(COC(C)=O)=C[C@@H]1c1c(O)cc(C(C)(C)CCCCBr)cc1O` [Compound 3.11, 2-[(1S,6S)-3-(Acetoxymethyl)-6-(1-methylethenyl)-2-cyclohexen-1-yl]-5-(6-bromo-2-methylhexan-2-yl)resorcinol]: the inhibitory constant (Ki) – broadly, the equilibrium dissociation constant of an inhibitor or competing ligand from its target – worked out at 37 nM on CB2 receptor and 191 nM on CB1.

Regarding `C=C(C)[C@H]1CCC(COC(C)=O)=C[C@@H]1c1c(O)cc(C(C)(C)CCCCCBr)cc1O` [Compound 3.12, 2-[(1S,6S)-3-(Acetoxymethyl)-6-(1-methylethenyl)-2-cyclohexen-1-yl]-5-(7-bromo-2-methylheptan-2-yl)resorcinol], the Ki is 27 nM on CB2 receptor and 29 nM on CB1.

Consider `C=C(C)[C@H]1CCC(COC(C)=O)=C[C@@H]1c1c(O)cc(C2(/C=C\CCCC)CCOCC2)cc1O` [Compound 3.14, 2-[(1S,6S)-3-(Acetoxymethyl)-6-(1-methylethenyl)-2-cyclohexen-1-yl]-5-[1-(1,2-cis-hexen-1-yl)-tetrahydro-2H-pyran-4-yl]resorcinol], for which the results for the Ki on CB2 receptor and at CB1 were 38 nM and 376 nM, respectively.

With `C=C(C)[C@H]1CCC(CO)=C[C@@H]1c1c(O)cc(C2(CCCCCBr)CCCC2)cc1O` [Compound 4.7, 2-[(1S,6S)-3-(Hydroxymethyl)-6-(1-methylethenyl)-2-cyclohexen-1-yl]-5-[(5-bromopentyl)cyclopentyl)resorcinol], the inhibitory constant (Ki) at CB2 receptor was determined as 5 nM; at CB1, 16 nM.

With `C=C(C)[C@H]1CCC(CO)=C[C@@H]1c1c(O)cc(C2(CCCCCBr)CCC2)cc1O` [Compound 4.8, 2-[(1S,6S)-3-(Hydroxymethyl)-6-(1-methylethenyl)-2-cyclohexen-1-yl]-5-[(5-bromopentyl)cyclobutyl)resorcinol], the inhibitory constant (Ki) is 11 nM at CB2 receptor and 14 nM on CB1.

For the compound `C=C(C)[C@H]1CCC(CO)=C[C@@H]1c1c(O)cc(C23CC4CC(CC(C4)C2)C3)cc1O` [Compound 4.9, 2-[(1S,6S)-3-(Hydroxymethyl)-6-(1-methylethenyl)-2-cyclohexen-1-yl]-5-(1-adamantyl)resorcinol], the Ki was determined as 49 nM at CB2 receptor and 449 nM on CB1.

For the compound `C=C(C)[C@@H]1CCC(COC(C)=O)=C[C@H]1c1c(O)cc(C(C)(C)CCCCCC)cc1O` [Compound 31.2, 2-[(1R,6R)-3-(Acetoxymethyl)-6-(1-methylethenyl)-2-cyclohexen-1-yl]-5-(1,1-dimethylheptyl)resorcinol], the inhibitory constant (Ki) on CB2 receptor worked out at 375 nM; on CB1 it was 221 nM.

With `C=C(C)[C@@H]1CCC(COC(C)=O)=C[C@H]1c1c(O)cc(C(C)(C)CCCCCCBr)cc1O` [Compound 31.13, 2-[(1R,6R)-3-(Acetoxymethyl)-6-(1-methylethenyl)-2-cyclohexen-1-yl]-5-(8-bromo-2-methyloct-2-yl)resorcinol], the Ki on CB2 receptor worked out at 171 nM; on CB1, 205 nM.

As for `C=C(C)[C@H]1CCC(COC(C)=O)=C[C@@H]1c1c(O)cc(C2(CCCCCC#N)CCC2)cc1O` [Compound 33, 2-[(1S,6S)-3-(Acetoxymethyl)-6-(1-methylethenyl)-2-cyclohexen-1-yl]-5-[(5-cyanopentyl)cyclobutyl)resorcinol], the Ki on CB2 receptor is 15 nM; on CB1 it was 65 nM.

Consider `C=C(C)[C@H]1CCC(CO)=C[C@@H]1c1c(O)cc(C2(CCCCCN=[N+]=[N-])CCC2)cc1O` [Compound 37, 2-[(1S,6S)-3-(Hydroxymethyl)-6-(1-methylethenyl)-2-cyclohexen-1-yl]-5-[(5-azidopentyl)cyclobutyl)resorcinol], for which the Ki came out at 7.2 nM on CB2 receptor and 22 nM on CB1.

Turning to `CCCCCc1cc(O)c([C@H]2C=C(C)[C@H]3C[C@@H]2C3(C)C)c(O)c1` [Compound 40.1, (+)-2-[(1R,4S,5S)-2,6,6-trimethylbicyclo[3.1.1]hept-2-en-4-yl]-5-pentyl-resorcinol, reference compound], the Ki on CB2 receptor was determined as 47 nM; at CB1 it was 671 nM.

For the compound `CCCCCCC1(c2cc(O)c([C@H]3C=C(C)[C@H]4C[C@@H]3C4(C)C)c(O)c2)CCCC1` [Compound 40.4, (+)-2-[(1R,4S,5S)-2,6,6-trimethylbicylco[3.1.1]hept-2-en-4-yl]-5-(1-hexyl-1-cyclopentyl)resorcinol], the values for the inhibitory constant (Ki) at CB2 receptor and on CB1 were 17 nM and 23 nM, respectively.

On to `CCCC/C=C\C1(c2cc(O)c([C@H]3C=C(C)[C@H]4C[C@@H]3C4(C)C)c(O)c2)CCCC1` [Compound 40.5, (+)-2-[(1R,4S,5S)-2,6,6-trimethylbicylco[3.1.1]hept-2-en-4-yl]-5-[1-(1,2-cis-hexen-1-yl)-cyclopent-1-yl]resorcinol], for which the Ki on CB2 receptor was found to be 6.6 nM; on CB1 it was 13.4 nM.

`CC1=C[C@H](c2c(O)cc(C3(CCCCCBr)CCCC3)cc2O)[C@@H]2C[C@H]1C2(C)C` [Compound 40.7, (+)-2-[(1R,4S,5S)-2,6,6-trimethylbicylco[3.1.1]hept-2-en-4-yl]-5-[(5-bromopentyl)cyclopentyl]resorcinol]: the figures for the Ki at CB2 receptor and at CB1 were 4.7 nM and 6.4 nM, respectively.

`CC1=C[C@H](c2c(O)cc(C3(CCCCCBr)CCC3)cc2O)[C@@H]2C[C@H]1C2(C)C` [Compound 40.8, (+)-2-[(1R,4S,5S)-2,6,6-trimethylbicylco[3.1.1]hept-2-en-4-yl]-5-[(5-bromopentyl)cyclobutyl]resorcinol]: the values for the inhibitory constant (Ki) on CB2 receptor and on CB1 were 2.1 nM and 1 nM, respectively.

Turning to `CC1=C[C@H](c2c(O)cc(C3(CCCCBr)CCC3)cc2O)[C@@H]2C[C@H]1C2(C)C` [Compound 40.15, (+)-2-[(1R,4S,5S)-2,6,6-trimethylbicylco[3.1.1]hept-2-en-4-yl]-5-[(5-bromobutyl)cyclobutyl]resorcinol], the Ki on CB2 receptor is 1.9 nM; on CB1, 11 nM.

`CCCCCc1cc(O)c([C@@H]2C=C(C)[C@@H]3C[C@H]2C3(C)C)c(O)c1` [Compound 43.1, (−)-2-[(1S,4R,5R)-2,6,6-trimethylbicyclo[3.1.1]hept-2-en-4-yl]-5-pentyl-resorcinol, reference compound]: the values for the inhibition constant (Ki) on CB2 receptor and at CB1 were 565 nM and 837 nM, respectively.

Regarding `CCCC/C=C\C1(c2cc(O)c([C@@H]3C=C(C)[C@@H]4C[C@H]3C4(C)C)c(O)c2)CCCC1` [Compound 43.5, (−)-2-[(1S,4R,5R)-2,6,6-trimethylbicyclo[3.1.1]hept-2-en-4-yl]-5-[1-(1,2-cis-hexen-1-yl)-cycolpentyl-1-yl]resorcinol], the Ki on CB2 receptor amounted to 29 nM; at CB1, 45 nM.

As for `C=C(C)[C@@H]1CCC(=O)C[C@H]1c1c(O)cc(C23CC4CC(CC(C4)C2)C3)cc1O` [Compound 48.2, (3R,4R)-3-[4-(1-Adamantyl)-2,6-dihydroxyphenyl]-4-isopropenylcyclohexan-1-one], the inhibition constant Ki on CB2 receptor is above 1000 nM; on CB1, 694 nM.

On to `C=C(C)[C@@H]1CCC(=COC)C[C@H]1c1c(O)cc(C23CC4CC(CC(C4)C2)C3)cc1O` [Compound 49.2, (3R,4R)-3-[4-(1-Adamantyl)-2,6-dihydroxyphenyl]-4-isopropenyl-1-(methoxymethylene)cyclohexane], for which the Ki on CB2 receptor came out at 375 nM; at CB1, 1760 nM.

In the case of `C=C(C)[C@@H]1CC[C@@H](CO)C[C@H]1c1c(O)cc(C23CC4CC(CC(C4)C2)C3)cc1O` [Compound 51.2, (1R,3R,4R)-3-[4-(1-Adamantyl)-2,6-dihydroxyphenyl]-4-isopropenyl-1-(hydroxymethyl)cyclohexane], the Ki on CB2 receptor was determined as 16 nM; on CB1, 910 nM.

Take `C=C(C=O)[C@@H]1CC[C@@H](CO)C[C@H]1c1c(O)cc(C23CC4CC(CC(C4)C2)C3)cc1O` [Compound 53.2, (1R,3R,4R)-3-[4-(1-Adamantyl)-2,6-dihydroxyphenyl]-4-[2′-(propenalyl)]-1-(hydroxymethyl)cyclohexane]: the Ki worked out at 20 nM on CB2 receptor and 1400 nM on CB1.

Take `C=C(CO)[C@@H]1CC[C@@H](CO)C[C@H]1c1c(O)cc(C23CC4CC(CC(C4)C2)C3)cc1O` [Compound 54.2, (1R,3R,4R)-3-[4-(1-Adamantyl)-2,6-dihydroxyphenyl]-4-[2′-(3′-hydroxyprop-1′-enyl)]-1-(hydroxymethyl)cyclohexane]: the Ki at CB2 receptor amounted to 185 nM; on CB1, 4140 nM.

On to `C=C(C)[C@@H]1CC[C@@H](O)C[C@H]1c1c(O)cc(C23CC4CC(CC(C4)C2)C3)cc1O` [Compound 55, (1R,3R,4R)-3-[4-(1-Adamantyl)-2,6-dihydroxyphenyl]-4-isopropenyl-1-hydroxycyclohexane], for which the Ki at CB2 receptor was 343 nM; at CB1, 2400 nM.

On to `CC(C)[C@H]1CC[C@@H](CO)C[C@H]1c1c(O)cc(C23CC4CC(CC(C4)C2)C3)cc1O` [Compound 56, (1R,3R,4R)-3-[4-(1-Adamantyl)-2,6-dihydroxyphenyl]-4-isopropyl-1-(hydroxymethyl)cyclohexane], for which the Ki stood at 23 nM on CB2 receptor and 998 nM at CB1.

Consider `C=C(C)[C@@H]1CC[C@@H](C(=O)O)C[C@H]1c1c(O)cc(C(C)(C)CCCCCC)cc1O` [Compound 58.2, (1R,3R,4R)-3-[4-(1′,1′-Dimethylheptyl)-2,6-dihydroxyphenyl]-4-isopropenyl-1-carboxylylcyclohexane], for which the inhibition constant Ki on CB2 receptor and on CB1 was above 1000 nM throughout.

As to `C=C(C)[C@@H]1CC[C@@H](C(N)=O)C[C@H]1c1c(O)cc(C(C)(C)CCCCCC)cc1O` [Compound 59.1, (1R,3R,4R)-3-[4-(1′,1′-Dimethylheptyl)-2,6-dihydroxyphenyl]-4-isopropenyl-1-carboxamidocyclohexane], the Ki on CB2 receptor and on CB1 was above 1000 nM in each case.

The values above are taken from patent publication US9517989B2, “2-cycloalkyl resorcinol cannabinergic ligands” (priority 2012, dated 2016).
